These results are taken from PMC10815578 (International Journal of Molecular Sciences, 2024).

The structures appear in SMILES notation. Where “and” joins values, the source holds several entries; their conditions need not be identical. Equal values may be shown once. Read-outs that look alike come from different tables or passages of the source.

One series concerns the target T1, OATP4C1 (Homo sapiens, UniProt Q6ZQN7).
T1 sequence (Q6ZQN7 1-724): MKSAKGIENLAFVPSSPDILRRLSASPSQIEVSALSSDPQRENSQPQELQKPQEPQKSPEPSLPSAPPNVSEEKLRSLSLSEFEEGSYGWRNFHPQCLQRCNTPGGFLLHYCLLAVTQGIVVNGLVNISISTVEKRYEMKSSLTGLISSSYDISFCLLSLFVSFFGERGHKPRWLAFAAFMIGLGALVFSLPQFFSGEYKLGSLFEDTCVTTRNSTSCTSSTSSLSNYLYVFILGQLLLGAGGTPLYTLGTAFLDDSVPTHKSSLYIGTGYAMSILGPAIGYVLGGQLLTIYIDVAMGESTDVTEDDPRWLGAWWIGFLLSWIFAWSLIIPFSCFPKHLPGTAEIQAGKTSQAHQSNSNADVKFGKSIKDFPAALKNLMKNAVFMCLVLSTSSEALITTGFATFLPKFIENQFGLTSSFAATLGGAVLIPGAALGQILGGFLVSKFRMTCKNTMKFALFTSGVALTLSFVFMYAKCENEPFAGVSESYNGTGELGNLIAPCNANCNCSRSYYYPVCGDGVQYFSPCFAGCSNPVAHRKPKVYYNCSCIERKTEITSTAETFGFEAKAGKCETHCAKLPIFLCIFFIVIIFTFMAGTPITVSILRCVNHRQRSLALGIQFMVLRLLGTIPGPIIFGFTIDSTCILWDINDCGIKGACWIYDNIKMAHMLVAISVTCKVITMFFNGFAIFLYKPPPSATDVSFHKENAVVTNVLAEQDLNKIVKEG
Put plainly: Inhibition of OATP4C1-mediated T3 uptake in OATP4C1/MDCKII cells. To be noted: for inhibition at 10 min, 100 µM / inhibition at 10 min, 50 µM: human; for alteration of OATP4C1-mediated transport (in words): 100 µM (theaflavin 50 µM); for inhibition at 10 min, 50 µM: curcumin inhibition of OATP4C1-mediated transport, 50 µM curcumin.

The next series has as its system OATP2B1. To be noted: Supplementary table, ref previous reports (superscript numbers), cited from earlier work; for IC50: read-out: OATP2B1 IC50.
A further series concerns OATP1B3. To be noted: read-out: OATP1B3 IC50; Supplementary table; ref previous reports (superscript numbers); cited from earlier work.
A further series has as its system OATP1B1. The note with it: cited from earlier work; for OATP1B1 inhibition degree: ref 1 of the supplement.
Where [1] appears, read: pH 7.4, probe T3 (1 µM), OATP4C1 inhibition degree, 100 µM, Supplementary table.
Where [2] appears, read: Supplementary table, ref previous reports (superscript numbers).
The mark [3] stands for this setting: read-out: OATP1B1 IC50, Supplementary table, ref previous reports (superscript numbers).
The mark [4] stands for this setting: pH 7.4, probe T3 (1 µM), inhibition of OATP4C1-mediated transport, 100 µM compound, 1 µM T3, 10 min, 37 °C, without AA.

Consider `Oc1cc(O)c2cc(O)c(-c3ccc(O)c(O)c3)[o+]c2c1` [Cyanidin, Cyanidin chloride], for which, at OATP4C1 (Supplementary table), the “OATP4C1 inhibition or elevation (class)” value is on record as “Yes”. The inhibition (usually the percentage by which the read-out fell short of the control) at 10 min, 100 µM on OATP4C1 (setting [1]) was found to be 24%.

Regarding `COc1ccc([C@@H]2CC(=O)c3c(O)cc(O[C@@H]4O[C@H](CO[C@@H]5O[C@@H](C)[C@H](O)[C@@H](O)[C@H]5O)[C@@H](O)[C@H](O)[C@H]4O)cc3O2)cc1O` [Hesperidin, hesperidin], the “OATP4C1 inhibition or elevation (class)” value on OATP4C1 (Supplementary table) is on record as “No”.

On to `O=c1c(O[C@@H]2O[C@H](CO)[C@H](O)[C@H](O)[C@H]2O)c(-c2ccc(O)c(O)c2)oc2cc(O)cc(O)c12` [Hyperoside], for which the IC50 (in general, the concentration that gives 50% inhibition) with OATP2B1 is 29.4 ± 1.5 µM. The “OATP4C1 inhibition or elevation (class)” value at OATP4C1 (Supplementary table) was “No”.

`O=c1c(O)c(-c2cc(O)c(O)c(O)c2)oc2cc(O)cc(O)c12` [Myricetin, myricetin]: on OATP4C1 (Supplementary table), the “OATP4C1 inhibition or elevation (class)” value was “No”.

Turning to `C[C@@H]1O[C@@H](O[C@H]2[C@H](Oc3cc(O)c4c(c3)O[C@H](c3ccc(O)cc3)CC4=O)O[C@H](CO)[C@@H](O)[C@@H]2O)[C@H](O)[C@H](O)[C@H]1O` [Naringin, naringin], the IC50 in the series with OATP1B3 was 197.5 ± 1.1 µM. Also, at OATP4C1 (Supplementary table), the “OATP4C1 inhibition or elevation (class)” value is reported as “No”. For the same compound, in the series with OATP1B1 (250 µM), the OATP1B1 inhibition degree is recorded as less than 50%. Moreover, the “OATP1B1 inhibition or elevation (class)” value in the series with OATP1B1 (setting [2]) is reported as “Yes”.

Regarding `C[C@@H]1O[C@@H](OC[C@H]2O[C@@H](Oc3c(-c4ccc(O)c(O)c4)oc4cc(O)cc(O)c4c3=O)[C@H](O)[C@@H](O)[C@@H]2O)[C@H](O)[C@H](O)[C@H]1O` [Rutin, rutin], the IC50 with OATP1B3 was 111.5 ± 1.1 µM; in the series on OATP2B1, 60.7 ± 1.2 µM. Also, the “OATP4C1 inhibition or elevation (class)” value on OATP4C1 (Supplementary table) is listed as “No”. In addition, the OATP1B1 elevation degree in the series on OATP1B1 (50 µM, ref 2 of the supplement) is given as 81.1%. Moreover, the OATP1B1 inhibition degree with OATP1B1 (150 µM) is less than 50%. In addition, the “OATP1B1 inhibition or elevation (class)” value in the series with OATP1B1 (setting [2]) is “Elevation”.

As to `O=c1c(O)cc([C@H]2Oc3cc(O)cc(O)c3C[C@H]2O)cc2c([C@H]3Oc4cc(O)cc(O)c4C[C@H]3O)cc(O)c(O)c12` [Theaflavin, theaflavin], in the series with OATP2B1 (read-out: OATP2B1 Ki (asterisk)), the Ki (as a rule, the equilibrium dissociation constant of an inhibitor or competing ligand from its target) was 8.2 ± 1.7 µM. Besides, the “alteration of OATP4C1-mediated transport (in words)” value on OATP4C1 (1 µM T3, 10 min, without AA) is reported as “did not inhibit”. Further, the “OATP4C1 inhibition or elevation (class)” value on OATP4C1 (Supplementary table) is reported as “No”.

In the case of `O=C(O)/C=C/c1ccc(O)c(O)c1` [caffeic acid, Caffeic acid], the “alteration of OATP4C1-mediated transport (in words)” value on OATP4C1 (1 µM T3, 10 min, without AA) is “did not inhibit”. In addition, the “OATP4C1 inhibition or elevation (class)” value at OATP4C1 (Supplementary table) is “No”.

With `COc1cc(/C=C/C(=O)CC(=O)/C=C/c2ccc(O)c(OC)c2)ccc1O` [curcumin], the inhibition at 10 min, 50 µM on OATP4C1 (pH 7.4, probe T3 (1 µM), absence of AA, 1 µM T3, 10 min) was 33%; at OATP4C1 (pH 7.4, probe T3 (1 µM), presence of 10, 100 and 1000 µM AA, 1 µM T3, 10 min), 63 to 67%. Also, the half-maximal inhibitory concentration (IC50) was 3.8 µM in the series on OATP1B1 (read-out: IC50 OATP1B1 transport, no antioxidant used) and 3.81 µM with OATP1B1 (setting [3]).

As for `O=c1c(-c2ccc(O)cc2)coc2cc(O)ccc12` [daidzein], the IC50 with OATP2B1 was 22.3 µM and 20.7 µM. Moreover, on OATP4C1, the “OATP4C1 inhibition or elevation (class)” value is listed as “Yes” and the “inhibitory effect on OATP4C1-mediated transport in the presence of AA compared with its absence” value (“inhibitory effect … compared with its absence” for short) is recorded as “weakened”. On OATP4C1 (setting [1]), this compound had an inhibition at 10 min, 100 µM of 40%. Moreover, the inhibition at 10 min, 100 µM on OATP4C1 (setting [4]) worked out at 40%.

With `O=c1c(O)c(-c2ccc(O)c(O)c2)oc2cc(O)ccc12` [fisetin], the “inhibitory effect … compared with its absence” value on OATP4C1 (100 µM compound, 10 µM AA) is “weakened”. In addition, at OATP4C1 (Supplementary table), the “OATP4C1 inhibition or elevation (class)” value is reported as “No”. For the same compound, at OATP4C1 (setting [4]), the inhibition at 10 min, 100 µM is 24%.

With `O=C(O)c1cc(O)c(O)c(O)c1` [gallic acid, Gallic acid], the concentration for half-maximal inhibition (IC50) with OATP1B3 is 1.6 ± 0.6 µM.

For `O=c1c(-c2ccc(O)cc2)coc2cc(O)cc(O)c12` [genistein], the “inhibitory effect … compared with its absence” value at OATP4C1 (100 µM compound, 10 µM AA) is recorded as “weakened”. For the same compound, the “OATP4C1 inhibition or elevation (class)” value on OATP4C1 (Supplementary table) is recorded as “Yes”. In addition, at OATP4C1 (pH 7.4), the inhibition at 10 min, 100 µM was 42%. Also, the IC50 in the series with OATP1B1 (setting [3]) was 14.9 ± 3.76 µM.

As for `COc1cc(-c2oc3cc(O)cc(O)c3c(=O)c2O)ccc1O` [isorhamnetin], the IC50 in the series on OATP1B3 was 3.1 µM; with OATP2B1, 0.82 µM. For the same compound, the “inhibitory effect … compared with its absence” value on OATP4C1 (100 µM compound, 10 µM AA) is reported as “weakened”. Moreover, on OATP4C1 (Supplementary table), the “OATP4C1 inhibition or elevation (class)” value was “Yes”. Besides, on OATP4C1 (pH 7.4), the inhibition at 10 min, 100 µM was determined as 18%.
